# System: CD1 female mouse brain lipidome
# Assay: Brain-region lipid levels (HPLC/MS/MS lipidomics) 2 h after single i.p. 3 mg/kg CP 55,940 vs vehicle
# Assay type: in vivo
# Method: The Bloomington Institutional Animal Care and Use Committee of Indiana University reviewed and approved the animal procedures. Female mice from the CD1 strain were utilized to match our study examining THC’s effects on the brain lipidome ([Leishman et al., 2018]). Mice were given a single i.p. injection of either 3 mg/kg CP or 1:1:18 cremophor:ethanol:saline vehicle (please refer to the section “3 mg/kg CP Is Relevant for Synthetic Cannabinoid Abuse and Has Stronger Effects on the Female Mouse Brain Lipidome During Adolescence” for a justification of dose and use of female mice). Three different age groups were given injections: PND 35 and PND 50 adolescents, and adult mice (PND 113). At least eight mice in each age group received CP and at least eight received vehicle. Matching the THC study time course ([Leishman et al., 2018]), mice were sacrificed via rapid decapitation 2 h after injection. Brains were immediately removed and flash-frozen in liquid nitrogen, and then stored at -80°C until dissections were performed. Brains were dissected on an ice-cold dissection plate into the following regions: STR, HIPP, CER, THAL, CTX, HYP, MID, and STEM. These abbreviations for these brain areas will be used exclusively when discussing the results generated by these specific dissections. Each dissected area was immediately placed in liquid nitrogen and then stored at -80°C until used for lipid extraction.
# Tissue extracts were performed as previously described ([Bradshaw et al., 2006]; [Stuart et al., 2013]; [Raboune et al., 2014]; [Leishman et al., 2016a],[b], [2017], [2018]). First, samples were shock frozen in liquid nitrogen, weighed, and transferred to a centrifuge tube. The mass of the largest sample was multiplied by 50 to determine how many milliliters of HPLC-grade methanol (Fisher, Fair Lawn, NJ, United States) to add. Then, samples were spiked with 500 pmol deuterium-labeled NAGly (d8NAGly; Cayman Chemical, Ann Arbor, MI, United States). Samples were placed on ice in darkness for 2 h then individually homogenized and centrifuged at 19,000 × g for 20 min at 20°C. Supernatants were diluted with HPLC water (purified in house) to make a solution of 75% water, 25% supernatant. Lipids were partially purified on C18 solid phase extraction columns (Agilent, Palo Alto, CA, United States). A series of four elutions with 1.5 mL of 60%, 75%, 85%, and 100% methanol were collected ([Stuart et al., 2013]; [Leishman et al., 2016a],[b], [2018]).
# As previously described ([Bradshaw et al., 2006]; [Tan et al., 2006]; [Smoum et al., 2010]; [Stuart et al., 2013]; [Tortoriello et al., 2013]; [Raboune et al., 2014]; [Leishman et al., 2016a],[b], [2017], [2018]), samples were analyzed using an Applied Biosystems API 3000 triple quadrupole mass spectrometer with electrospray ionization (Foster City, CA, United States). Using an Agilent XDB-C18 reversed phase analytical column and optimized mobile phase gradients, 20 μL from each elution were chromatographed. Two Shimadzu 10ADvp pumps (Columbia, MD, United States) provided the pressure for gradient elution. Mobile phase A: 20% methanol, 80% water (v/v) and 1 mM ammonium acetate (Sigma, St. Louis, MO, United States). Mobile phase B: 100% methanol, 1 mM ammonium acetate. Every method run began with 0% mobile phase B, reached 100% mobile phase B flowing at 0.2 mL/min, and gradually returned to 0% mobile phase B.
# This screening library will be referred to as the lipidome when discussing data from this study. HPLC/MS/MS data were analyzed using Analyst software (Applied Biosystems) ([Bradshaw et al., 2006]; [Tan et al., 2006]; [Stuart et al., 2013]; [Tortoriello et al., 2013]; [Raboune et al., 2014]; [Leishman et al., 2016a],[b], [2017], [2018]). Chromatograms (Supplementary Figure 3) were generated by determining the retention time of analytes from the analytical column with a [M-1] or [M+1] parent peak and a fragmentation peak corresponding to the programmed values. […]
# [1] = adult midbrain, 3mg/kg CP 55,940, p .049
# [2] = adult midbrain, 3mg/kg CP 55,940, p .055
# [3] = adult midbrain, 3mg/kg CP 55,940, p .060
# [4] = adult midbrain, 3mg/kg CP 55,940, p .063
# [5] = adult midbrain, 3mg/kg CP 55,940, p .073
# [6] = adult midbrain, 3mg/kg CP 55,940, p .087
# [7] = adult midbrain, 3mg/kg CP 55,940, p .098
# [8] = brainstem, PND35, 3 mg/kg CP 55,940 vs Veh
# [9] = brainstem, PND35 female mice, 3mg/kg CP 55,940, mean
# [10] = brainstem, PND 50, 3 mg/kg CP 55,940
smiles,measurement,setting,value
"CCCCCCC(C)(C)c1ccc([C@@H]2C[C@H](O)CC[C@H]2CCCO)c(O)c1 [CP 55,940]",PGE2 Direction (relative to Veh),[1],↑
same,PGE2 Magnitude (x Veh level),[1],1.17
same,6-ketoPGF1α Direction (relative to Veh),[2],↑
same,6-ketoPGF1α Magnitude (x Veh level),[2],1.29
same,"N-arachidonoyl ethanolamine, Direction (relative to Veh)",[3],↓
same,"N-arachidonoyl ethanolamine, Magnitude (x Veh level)",[3],0.78
same,N-linoleoyl glycine Direction (relative to Veh),[4],↓
same,N-linoleoyl glycine Magnitude (x Veh level),[4],0.52
same,N-stearoyl ethanolamine direction (relative to Veh),[5],↑
same,N-stearoyl ethanolamine magnitude (x Veh level),[5],1.44
same,N-linoleoyl serine Direction (relative to Veh),[6],↓
same,N-linoleoyl serine Magnitude (x Veh level),[6],0.79
same,N-arachidonoyl serine Direction (relative to Veh),[7],↓
same,N-arachidonoyl serine Magnitude (x Veh level),[7],0.53
same,changes in lipid levels that were decreases,"adult, eight regions",78
same,"2-arachidonoyl glycerol, Direction (relative to Veh)",[8],↓
same,"2-arachidonoyl glycerol, Magnitude (x Veh level)",[8],0.81 x Veh level
same,2-linoleoyl glycerol Direction (relative to Veh),[8],↓
same,2-linoleoyl glycerol Magnitude (x Veh level),[8],0.82 x Veh level
same,N-arachidonoyl GABA Direction (relative to Veh),[8],↓
same,N-arachidonoyl GABA Magnitude (x Veh level),[8],0.70 x Veh level
same,N-arachidonoyl taurine Direction (relative to Veh),[8],↓
same,N-arachidonoyl taurine Magnitude (x Veh level),[8],0.89 x Veh level
same,N-docosahexaenoyl leucine Direction (relative to Veh),[8],↑
same,N-docosahexaenoyl leucine Magnitude (x Veh level),[8],1.37 x Veh level
same,N-docosahexaenoyl valine Direction (relative to Veh),[8],↑
same,N-docosahexaenoyl valine Magnitude (x Veh level),[8],1.56 x Veh level
same,N-oleoyl leucine Direction (relative to Veh),[8],↑
same,N-oleoyl leucine Magnitude (x Veh level),[8],1.15 x Veh level
same,N-oleoyl proline Direction (relative to Veh),[8],↑
same,N-oleoyl proline Magnitude (x Veh level),[8],1.16 x Veh level
same,N-oleoyl valine Direction (relative to Veh),[8],↑
same,N-oleoyl valine Magnitude (x Veh level),[8],1.26 x Veh level
same,"N-palmitoyl leucine, Direction (relative to Veh)",[8],↑
same,"N-palmitoyl leucine, Magnitude (x Veh level)",[8],1.38 x Veh level
same,N-palmitoyl phenylalanine Direction (relative to Veh),[8],↑
same,N-palmitoyl phenylalanine Magnitude (x Veh level),[8],1.22 x Veh level
same,N-palmitoyl proline Direction (relative to Veh),[8],↑
same,N-palmitoyl proline Magnitude (x Veh level),[8],1.20 x Veh level
same,N-palmitoyl tryptophan Direction (relative to Veh),[8],↓
same,N-palmitoyl tryptophan Magnitude (x Veh level),[8],0.82 x Veh level
same,N-palmitoyl valine Direction (relative to Veh),[8],↑
same,N-palmitoyl valine Magnitude (x Veh level),[8],1.40 x Veh level
same,N-stearoyl valine Direction (relative to Veh),[8],↑
same,N-stearoyl valine Magnitude (x Veh level),[8],1.41 x Veh level
same,PGE2 Direction (relative to Veh),[8],↑
same,PGE2 Magnitude (x Veh level),[8],1.15 x Veh level
same,2-arachidonoyl glycerol level,[9],3.96E-10
same,2-linoleoyl glycerol level,[9],1.58E-10
same,2-oleoyl glycerol level,[9],1.53E-09
same,2-palmitoyl glycerol level,[9],2.82E-10
same,6-ketoPGF1α level,[9],1.2E-11
same,11-OH-THC level,[9],BDL
same,11-nor-9-carboxyTHC level,[9],BDL
same,Arachidonic acid level,[9],1.65E-09
same,Cannabidiol level,[9],BDL
same,Linoleic acid level,[9],5.88E-10
same,N- stearoyl valine level,[9],5.2E-13
same,N-arachidonoyl serine level,[9],3.04E-12
same,N-arachidonoyl taurine level,[9],1.88E-11
same,N-arachidonoyl tryptophan level,[9],BDL
same,N-arachidonoyl tyrosine level,[9],6.37E-13
same,N-docosahexaenoyl serine level,[9],1.42E-11
same,N-docosahexaenoyl tyrosine level,[9],8.89E-13
same,N-docosahexaenoyl valine level,[9],1.82E-13
same,N-linoleoyl serine level,[9],2.61E-11
same,N-linoleoyl tryptophan level,[9],BDL
same,N-linoleoyl tyrosine level,[9],BDL
same,N-nervonoyl valine level,[9],BDL
same,N-oleoyl proline level,[9],6.88E-13
same,N-oleoyl serine level,[9],1.44E-10
same,N-oleoyl tyrosine level,[9],5.15E-13
same,N-oleoyl valine level,[9],5.41E-13
same,N-palmitoyl proline level,[9],9.02E-13
same,N-palmitoyl serine level,[9],3.95E-11
same,N-palmitoyl tryptophan level,[9],2.02E-13
same,N-palmitoyl tyrosine level,[9],8.2E-13
same,N-palmitoyl valine level,[9],1.16E-12
same,N-stearoyl proline level,[9],4.63E-13
same,N-stearoyl serine level,[9],2.01E-11
same,N-stearoyl tryptophan level,[9],2.84E-13
same,N-stearoyl tyrosine level,[9],8.52E-14
same,Oleic acid level,[9],1.63E-09
same,PGE2 level,[9],2.93E-10
same,PGF2α level,[9],2.4E-10
same,PhosphoLEA level,[9],2.06E-11
same,THC level,[9],BDL
same,"2-arachidonoyl glycerol level, Mean",[10],2.23E-10
same,"2-linoleoyl glycerol level, Mean",[10],2.39E-10
same,"2-oleoyl glycerol level, Mean",[10],3.85E-09
same,"2-palmitoyl glycerol level, Mean",[10],8.83E-10
same,"6-ketoPGF1α level, Mean",[10],1.35E-11
same,"11-OH-THC level, Mean",[10],BDL
same,"11-nor-9-carboxyTHC level, Mean",[10],BDL
same,"Arachidonic acid level, Mean",[10],1.44E-10
same,"Cannabidiol level, Mean",[10],BDL
same,"Linoleic acid level, Mean",[10],1.4E-10
same,"N- stearoyl valine level, Mean",[10],8.37E-14
same,"N-arachidonoyl GABA level, Mean",[10],3.67E-12
same,"N-arachidonoyl alanine level, Mean",[10],1.22E-13
same,"N-arachidonoyl dopamine level, Mean",[10],BDL
same,"N-arachidonoyl ethanolamine level, Mean",[10],2.44E-11
